Results on three compounds are retold here after patent publication US10918731B2, “HSP90 inhibitory peptide conjugate and application thereof in treating tumor” (INSTITUTE OF BASIC MEDICAL SCIENCES, CHINESE ACADEMY OF …, priority 2015, dated 2021).

Ends that are not written are not given here. Peptide text beside a SMILES is read from it.

Data set [1] relates to Lung adenocarcinoma A549 cells. In words: CCK-8 cytotoxicity, lung adenocarcinoma A549 cells. In kind it is cell-based. Conditions: human, 48 h. The procedure:
(§1) Lung adenocarcinoma A549, breast cancer MCF-7S and melanoma A375 cells were diluted respectively to 3×10^4 cells/ml and pipetted to 96-well plate with 100 μl in each well. Twenty-four hours later, 5, 20, 80 or 320 nM DTX-P7, Paclitaxel-heptapeptide conjugate (PTX-P7), Doxorubicin-NH2-heptapeptide conjugate (DOX-P7) and Doxorubicin-OH-heptapeptide conjugate (DOX-OH-P7) were added to the wells and incubated for 48 h. Then 10 μl CCK-8 was added and measured 1.5 h later at 450 nm to calculate the viability and median inhibitory concentration IC50.

For data set [2], the system named is breast cancer MCF-7S cells. Kind of data set: CCK-8 cytotoxicity, breast cancer MCF-7S cells. In kind it is cell-based. Conditions: human, 48 h. The procedure: as §1
Data set [3] relates to melanoma A375 cells. In words: CCK-8 cytotoxicity, melanoma A375 cells. In kind it is cell-based. Conditions: human, 48 h. The procedure: as §1
Data set [4] has as its system tumor cell. Kind of data set: Autophagy: autophagosome and expression of autophagy related proteins (Beclin 1, LC3). In kind it is cell-based. The conditions noted are these: 6 h; for expression of autophagic Beclin1 and LC3, single agent: agent alone. The protocol: The cells were seeded and cultured. Targeting peptide was diluted with culture medium. Appropriate concentration of DTX was also prepared for the seeded cells. Equivalent culture medium was added as negative control group; 1×10^−9 M targeting peptide solution was added as Peptide group; 10^−9 M DTX was added as DTX group; 10^−9 M targeting peptide and […] were added as combination group (DTX+P). The cells were incubated at 37° C., 5% CO2 for 6 h to analyze the autophagosome. Protein was extracted to measured expression of autophagy related proteins.

Data set [5] deals with A549 cell xenograft. Kind of data set: Human non-small cell lung cancer A549 xenograft nude mice model, tumor growth. In kind it is in vivo, BALB/c nu/nu female nude mice. Conditions: 10 mg/kg based on DTX, intraperitoneal, once a week, four injections. The procedure: A549 cell, a non-small cell lung cancer cell line, growing in logarithmic phase were collected and gently pipetted with 1 ml F-12K media containing […] to prepare the single cell suspension, which was consequently counted with appropriate dilution. The cell suspension was mixed with Matrigel (1:3) under ice bath. The concentration of the cell suspension was adjusted to 8×10^6 cells/ml and stored at 0° C. before transplantation.
Thirty BALB/c nu/nu female nude mice (16 g) were acclimated to the environment for 1 week before the formal experiment. […]
The mice were frequently observed and tumor volume was measured with a Vernier caliper, the volume was calculated by the equation (long diameter×short diameter^2) (½), when tumor reaching a size of 100 mm^3, mice were divided into 4 groups: (1) Saline (control), (2) DTX, (3) TN-DTX and (4) DTX-P7.
Next day after animal grouping, agents were administrated via intraperitoneal injection once a week for a total of four injections. The first administrated day was recorded as Day 0 and the other administrated days were respectively recorded as Day 7, Day 14, Day 21. […]
The mice were measured and weighted every two times a week. Tumor dimensions were measured using calipers. […]

For data set [6], the system named is HSP90. Kind of data set: Western blotting of HSP90 expression in A549 cells. In kind it is cell-based, human. Conditions: 48 h. The procedure:
• (1) lung adenocarcinoma A549 cells were trypsinized and then centrifuged at 800×g for 5 min. The precipitate was re-suspended with PBS and adjusted to 1×10^6 cells/ml. • (2) the cells were seeded into 6-well plate and 2 ml culture medium was added. Then the cells were incubated at 37° C., 5% CO2 overnight. • (3) The peptide was diluted with medium and 300 μl solution was added to each well with a final concentration of 1×10^−4 M. Equal volume of medium was added to the negative well. Triple wells were set for each group and experiment was repeated three times. The plate was incubated at 37° C., 5% CO2 for 48 h. Protein was extracted and subjected to Western blotting analysis.

In data set [7] the test system is tumor cell. Kind of data set: Apoptosis by Annexin V method and Western blotting of apoptosis related proteins. In kind it is cell-based. The procedure:
The cells were seeded and cultured. Targeting peptide was diluted with culture medium. Appropriate concentration of DTX was also prepared for the seeded cells. Equivalent culture medium was added as negative control group, 1×10^−9 M targeting peptide solution added as Peptide group, 10^−9 M DTX added as DTX group, 10^−9 M targeting peptide and […] added as combination group (DTX+P). The cells were incubated at 37° C., 5% CO2 for 6 h to analyze the apoptosis by Annexin V method. The protein was extracted to measure the expression of apoptosis related proteins.

On to `COc1ccc2c(c1)C(=O)c1c(O)c3c(c(O)c1C2=O)C[C@@](O)(C(=O)COC(=O)CCC(=O)N[C@@H](CC(C)C)C(=O)N1CCC[C@H]1C(=O)N[C@@H](CC(C)C)C(=O)N[C@H](C(=O)N1CCC[C@H]1C(=O)N[C@@H](CC(C)C)C(=O)N1CCC[C@H]1C(=O)O)[C@@H](C)O)C[C@@H]3OC1CC(N)C(O)C(C)O1` (stereo partly drawn) [DOX-OH-P7] (HELM PEPTIDE1{[COc1ccc2c(c1)C(=O)c1c(O)c3c(c(O)c1C2=O)C[C@@](O)(C(=O)COC(=O)CCC(=O)[*:2])C[C@@H]3OC1CC(N)C(O)C(C)O1].L.P.L.T.P.L.P}$$$$V2.0), for which the values for the 50% inhibitory concentration (IC50) in data set [1], in data set [2] and in data set [3] were 6.2 nM, 18.1 nM and 28.4 nM, respectively.
Consider `CC(=O)O[C@@]12CO[C@@H]1C[C@H](O)[C@@]1(C)C(=O)[C@H](O)C3=C(C)[C@@H](OC(=O)[C@H](O)[C@@H](NC(=O)OC(C)(C)C)c4ccccc4)C[C@@](O)([C@@H](OC(=O)c4ccccc4)[C@H]21)C3(C)C` [DTX, Docetaxel, reference compound], for which the “expression of autophagic Beclin1 and LC3, single agent” value in data set [4] was “enhanced the expression the Beclin 1 and conversion of LC3-I to LC3-II”. In data set [5], the “effect on tumor growth” value is given as “obvious inhibitory effects on the tumor growth”.
Turning to “LPLTPLP (SEQ ID No: 1) [targeting peptide]”, the “expression of HSP90” value in data set [6] was “effectively down regulated the expression of HSP90 in a dose-dependent manner”. Further, the “apoptosis (Annexin V), peptide alone” value in data set [7] (6 h, 1×10^−9 M targeting peptide) is reported as “induced apoptosis”. In data set [7] (6 h, combination group (DTX+P)), the “apoptosis (Annexin V), peptide combined with DTX” value is on record as “further promoted apoptosis when combined with DTX”. Also, the “caspase-3 cleavage, peptide alone” value in data set [7] (Western blotting) was “induce caspase-3 cleavage”. The “caspase-3 cleavage, peptide combined with DTX” value in data set [7] (Western blotting, compared with DTX alone) is “the cleavage was further enhanced when combined with DTX compared with DTX alone”. Moreover, the “expression of autophagic Beclin1 and LC3, single agent” value in data set [4] is “did not affect the expression of these proteins”. Besides, in data set [4] (combination group (DTX+P), compared with DTX treatment only), the “Beclin1 expression and conversion of LC3-I to LC3-II, DTX and targeting peptide simultaneously added” value is reported as “significantly inhibited the autophagy induced by DTX”.
